For test [1], the system named is OR47a. The settings on record: similar system to Xenopus oocytes, cited from earlier work.
For test [2], the target named is T1, Drosophila OR47a (Drosophila melanogaster, UniProt P81921).
T1 construct: expressed in transfected cells
T1 sequence (P81921 1-385): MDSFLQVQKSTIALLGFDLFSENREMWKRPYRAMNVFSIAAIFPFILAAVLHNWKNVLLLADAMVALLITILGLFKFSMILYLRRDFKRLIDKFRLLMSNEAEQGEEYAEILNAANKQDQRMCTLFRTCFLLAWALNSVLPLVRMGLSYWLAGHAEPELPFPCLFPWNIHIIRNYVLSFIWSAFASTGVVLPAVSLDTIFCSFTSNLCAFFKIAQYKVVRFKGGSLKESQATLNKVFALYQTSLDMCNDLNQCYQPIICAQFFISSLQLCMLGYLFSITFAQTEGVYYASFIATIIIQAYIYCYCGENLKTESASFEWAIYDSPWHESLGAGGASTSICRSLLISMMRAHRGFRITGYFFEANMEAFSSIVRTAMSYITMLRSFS
T1 sequence (Q9VNB5 1-486 partner): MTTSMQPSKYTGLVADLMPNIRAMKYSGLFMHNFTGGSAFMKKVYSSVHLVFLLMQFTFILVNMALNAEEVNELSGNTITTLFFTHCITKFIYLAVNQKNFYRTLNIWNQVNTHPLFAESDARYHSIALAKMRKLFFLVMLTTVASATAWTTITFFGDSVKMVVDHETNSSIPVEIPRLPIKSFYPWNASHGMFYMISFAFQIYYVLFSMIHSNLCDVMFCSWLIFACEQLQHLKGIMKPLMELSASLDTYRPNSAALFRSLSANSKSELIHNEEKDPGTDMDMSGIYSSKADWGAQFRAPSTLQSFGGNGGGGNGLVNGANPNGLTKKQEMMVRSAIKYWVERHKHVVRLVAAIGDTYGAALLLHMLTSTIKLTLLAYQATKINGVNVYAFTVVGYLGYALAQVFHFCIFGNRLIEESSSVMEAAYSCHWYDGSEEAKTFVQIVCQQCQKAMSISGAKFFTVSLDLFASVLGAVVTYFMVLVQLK
Description: cell-based. Set-up: GCaMP6 calcium fluorescence in stable HEK293 OR+ORCO lines; peak dF normalised to 50 uM VUAA1 (=1). The following applies: HEK293; relative to 50 uM VUAA1 response; below 0.05 set to 0; read-out: % activation. In outline:
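Responses to VOCs (1, 10, 100 µM final) were read as fluorescence rise over baseline for 30 s in cells expressing the OR after 48–72 h doxycycline induction, in pH 7.3 buffer. ΔF values were divided by the same line's mean ΔF to 50 µM VUAA1 on that plate. Data are means of replicate days.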

Test [3] concerns OR13a. The following applies: Bactrocera dorsalis OR13a; read-out: EC50 in electrophysiology; cited from earlier work.

Like-named read-outs stand apart in the source and are kept apart here.

The EC50 is the concentration needed to bring the measured effect to its halfway point. In the case of `CCCCCOC(C)=O` [pentyl acetate], the half-maximal effective concentration (EC50) is 30.8 ± 1.28 µM in test [1] (ref 34, read-out: calculated EC50) and 10.7 ± 2 µM in test [1] (ref 39, read-out: calculated EC50).
Regarding `CC/C=C/CCO` [e3-hexenol], in test [2], the activity at 1 µM stood at 6.26%, the activity at 10 µM is 0% and the activity at 100 µM amounted to 14%.
Consider `C=CC(O)CCCCC` (stereo not drawn) [1-octen-3-ol], for which the EC50 in test [3] is 1.27 µM.

Source of the values: paper PMC10709440, “High-throughput ligand profile characterization in novel cell lines expressing seven heterologous insect olfactory receptors for the detection of volatile plant biomarkers” (Scientific Reports, 2023).
